Experimental data as given in PMC6281421, “Anticancer activity of 2’-hydroxyflavanone towards lung cancer” (Oncotarget, 2018).

Key:
[1] = molecular target: T1, recombinant RLIP (RLIP76) (Homo sapiens, UniProt Q15311); experiment: DNP-SG affinity resin binding and elution with free DNP-SG; conditions: 0.2 mM DNP-SG, 10 mM ATP, 10 mM MgCl2; also stimulates the ATPase as allocrite
T1 construct: gene RALBP1; fragments incl; 38 kDa present
T1 sequence (Q15311 1-655): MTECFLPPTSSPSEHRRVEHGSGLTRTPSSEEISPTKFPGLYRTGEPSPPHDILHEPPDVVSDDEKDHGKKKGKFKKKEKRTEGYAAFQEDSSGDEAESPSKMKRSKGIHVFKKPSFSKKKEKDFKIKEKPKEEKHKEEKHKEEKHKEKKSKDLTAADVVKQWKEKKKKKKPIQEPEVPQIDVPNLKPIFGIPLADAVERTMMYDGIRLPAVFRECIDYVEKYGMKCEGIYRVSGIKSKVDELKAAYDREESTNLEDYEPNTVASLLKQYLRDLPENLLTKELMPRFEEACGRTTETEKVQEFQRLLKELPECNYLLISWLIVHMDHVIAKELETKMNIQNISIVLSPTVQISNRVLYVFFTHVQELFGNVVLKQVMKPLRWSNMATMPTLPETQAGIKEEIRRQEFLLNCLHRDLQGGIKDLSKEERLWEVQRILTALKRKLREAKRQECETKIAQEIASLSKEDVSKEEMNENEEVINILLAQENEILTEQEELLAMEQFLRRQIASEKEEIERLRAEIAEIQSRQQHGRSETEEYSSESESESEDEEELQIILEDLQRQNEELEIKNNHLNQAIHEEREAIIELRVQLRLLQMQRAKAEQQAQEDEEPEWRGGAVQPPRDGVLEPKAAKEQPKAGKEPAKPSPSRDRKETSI

[2] = molecular target: T2, Rlip (RLIP76) purified from H358 and H1618 cells (Homo sapiens, UniProt Q15311); experiment: […]-DOX uptake into Rlip proteoliposomes, rapid filtration; assay type: biochemical; conditions: read-out: % inhibition of DOX transport at 20 μM
T2 construct: gene RALBP1
T2 sequence (Q15311 2-655): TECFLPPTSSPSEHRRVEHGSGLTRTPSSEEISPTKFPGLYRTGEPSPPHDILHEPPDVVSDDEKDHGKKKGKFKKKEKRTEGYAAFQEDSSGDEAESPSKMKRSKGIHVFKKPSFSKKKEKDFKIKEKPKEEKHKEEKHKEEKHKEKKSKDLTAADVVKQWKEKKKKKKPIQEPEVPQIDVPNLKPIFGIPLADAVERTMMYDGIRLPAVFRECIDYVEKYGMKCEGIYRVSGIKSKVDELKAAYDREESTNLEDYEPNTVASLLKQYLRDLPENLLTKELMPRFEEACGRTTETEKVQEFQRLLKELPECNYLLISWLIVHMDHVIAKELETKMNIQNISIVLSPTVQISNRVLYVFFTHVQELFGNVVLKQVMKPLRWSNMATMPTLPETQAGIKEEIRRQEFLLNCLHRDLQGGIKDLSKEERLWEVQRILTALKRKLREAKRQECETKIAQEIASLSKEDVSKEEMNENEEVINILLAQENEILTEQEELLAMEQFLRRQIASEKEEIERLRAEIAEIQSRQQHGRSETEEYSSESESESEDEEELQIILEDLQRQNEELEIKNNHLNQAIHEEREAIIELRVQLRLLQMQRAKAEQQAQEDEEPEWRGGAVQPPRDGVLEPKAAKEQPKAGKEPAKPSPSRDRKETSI

Row | inhibition at 20 µM [2] | SMILES | DNP-SG affinity resin binding and elution with free DNP-SG [1]
1 | – | N[C@@H](CCC(=O)N[C@@H](CSc1ccc([N+](=O)[O-])cc1[N+](=O)[O-])C(=O)NCC(=O)O)C(=O)O [DNP-SG, dinitrophenyl-S-glutathione] | the same major Rlip protein bands were observed in the 2HF eluate as in the DNP-SG eluate
2 | 22% | O=C1CC(c2ccccc2O)Oc2ccccc21 (centres unmarked) [2HF, 2'-hydroxyflavanone] | –
